US6713261B1, “Method for assessing genotoxicity of a compound” (Institut National de la Sante et de la Recherche Medicale, priority 1999, dated 2004)
Like-named read-outs stand apart in the source and are kept apart here. Starred links: 1 amine or outer side, 2 acyl side, 3 side chain; linkers in the order of their positions; H or OH if unused. Positions of bridges follow the written chain, without caps; N, C: chain ends. Non-standard residues stand in square brackets, D forms with d. Residues, ends and D or L forms follow the SMILES beside them. Chains are numbered I, II in the order given. Actinocin(9to1) = Cc1c2oc3c(C)ccc(C(=O)[*:1])c3nc-2c(C(=O)[*:2])c(N)c1=O; NMeV = CN[C@H](C(=O)O)C(C)C; Sar = CNCC(=O)O

How the values were obtained:
CTLL-2 cells [1] = assay type: cell-based, mouse; conditions: after metabolic activation
CTLL-2-bcl2 cells [2] = assay type: cell-based, mouse; conditions: after metabolic activation
CTLL-2 cells [3] = conditions: after metabolic activation
CTLL-2-bcl2 cells [4] = conditions: after metabolic activation
CTLL-2-bcl2 cells [5] = assay: Measurement of apoptosis (Annexin V-FITC, YOPRO-1) in CTLL-2-bcl2 cells; assay type: cell-based, mouse; conditions: for induction of apoptosis (result in words): in parallel to micronucleus test
CTLL-2 cells [6] = assay: Measurement of apoptosis (Annexin V-FITC, YOPRO-1) in CTLL-2 cells; assay type: cell-based, mouse
CTLL-2 cells [7] = assay: Micronucleus test without metabolic activation in CTLL-2 cells; conditions: for formation of micronuclei / micronucleated cell frequency (result in words): harvested at 15th hour, without metabolic activation
CTLL-2-bcl2 cells [8] = assay: Micronucleus test without metabolic activation in CTLL-2-bcl2 cells; conditions: harvested at 15th hour
CTLL-2 cells [9] = assay: Metaphase analysis test in CTLL-2 cells; assay type: cell-based, mouse; conditions: for aberrant cells: CTLL-2
human lymphocytes [10] = conditions: human lymphocytes treated 44 hours; from 250 μM of dexamethasone; control 2%
human lymphocytes [11] = conditions: 44 hours
CTLL-2 cells [12] = conditions: mouse, 15 h
CTLL-2-bcl2 cells [13] = conditions: mouse, 15 h
[14] = CTLL-2 cells, in parallel to micronucleus test

## Cc1c2ccccc2c(C)c2c1ccc1ccccc12 [7,12-dimethylbenz[a]anthracene]
CTLL-2 cells [1]
  apoptosis (result in words): apoptosis only on the CTLL-2 cells
CTLL-2-bcl2 cells [2]
  apoptosis (result in words): apoptosis only on the CTLL-2 cells
CTLL-2 cells [3]
  formation of micronuclei (result in words): induce the formation of micronuclei
CTLL-2-bcl2 cells [4]
  formation of micronuclei (result in words): induce the formation of micronuclei

## Cc1c2oc3c(C)ccc(C(=O)N[C@@H]4C(=O)N[C@H](C(C)C)C(=O)N5CCC[C@H]5C(=O)N(C)CC(=O)N(C)[C@@H](C(C)C)C(=O)O[C@@H]4C)c3nc-2c(C(=O)N[C@@H]2C(=O)N[C@H](C(C)C)C(=O)N3CCC[C@H]3C(=O)N(C)CC(=O)N(C)[C@@H](C(C)C)C(=O)O[C@@H]2C)c(N)c1=O [Actinomycin D] (I: T[dV]P[Sar][NMeV] / II: T[dV]P[Sar][NMeV]; ester I:1-I:C, II:1-II:C; linker I:N-II:N via Actinocin(9to1))
CTLL-2-bcl2 cells [5]
  induction of apoptosis (result in words): neither apoptosis nor genotoxicity is observed
CTLL-2 cells [6]; [14]
  induction of apoptosis (result in words): induction of apoptosis
CTLL-2 cells [7]; CTLL-2 cells
  formation of micronuclei / micronucleated cell frequency (result in words): positive response in terms of clastogenesis
CTLL-2-bcl2 cells [8]
  formation of micronuclei / micronucleated cell frequency (result in words): neither apoptosis nor genotoxicity is observed

## COS(C)(=O)=O [MMS, Methyl methanesulfonate]
CTLL-2-bcl2 cells [5]
  induction of apoptosis (result in words): apoptotic phenomenon is not triggered
CTLL-2 cells [6]; [14]
  induction of apoptosis (result in words): apoptotic phenomenon is not triggered

## CN(N=O)C(N)=O [MNU, N-methyl-N-nitrosourea]
CTLL-2-bcl2 cells [5]
  induction of apoptosis (result in words): without inducing apoptosis
CTLL-2 cells [6]; [14]
  induction of apoptosis (result in words): without inducing apoptosis
CTLL-2 cells [7]; CTLL-2 cells
  formation of micronuclei / micronucleated cell frequency (result in words): positive response
CTLL-2-bcl2 cells [8]
  formation of micronuclei / micronucleated cell frequency (result in words): positive response

## COC(=O)Nc1nc2ccc(C(=O)c3cccs3)cc2[nH]1 [Nocodazole, nocodazole]
CTLL-2 cells [6]; [14]
  induction of apoptosis (result in words): induce apoptosis

## C[C@H]1CCC/C=C/[C@@H]2C[C@H](O)C[C@H]2[C@H](O)/C=C/C(=O)O1 [brefeldin A]
CTLL-2 cells [6]; [14]
  induction of apoptosis (result in words): induce apoptosis

## CC[C@@]1(O)C(=O)OCc2c1cc1n(c2=O)Cc2cc3ccccc3nc2-1 [camptothecin]
CTLL-2 cells [6]; [14]
  induction of apoptosis (result in words): induce apoptosis

## COc1cc(/C=C/C(=O)CC(=O)/C=C/c2ccc(O)c(OC)c2)ccc1O [curcumin]
CTLL-2 cells [6]; [14]
  induction of apoptosis (result in words): induce apoptosis

## O=P1(N(CCCl)CCCl)NCCCO1 (stereo not drawn) [cyclophosphamide]
CTLL-2 cells [1]
  apoptosis (result in words): apoptosis only on the CTLL-2 cells
CTLL-2-bcl2 cells [2]
  apoptosis (result in words): apoptosis only on the CTLL-2 cells
CTLL-2 cells [3]
  formation of micronuclei (result in words): induce the formation of micronuclei
CTLL-2-bcl2 cells [4]
  formation of micronuclei (result in words): induce the formation of micronuclei

## C[C@@H]1C[C@H]2[C@@H]3CCC4=CC(=O)C=C[C@]4(C)[C@@]3(F)[C@@H](O)C[C@]2(C)[C@@]1(O)C(=O)CO [dexamethasone]
CTLL-2 cells [9]; from 37.5 nM of dexamethasone, control 2%
  aberrant cells: 8%
CTLL-2 cells [9]; CTLL-2 cells
  chromosomal aberrations (result in words): chromosome and chromatid breaking but no exchange
  lowest concentration with number of aberrant cells statistically different (p=0.05) from control: 37.5 nM
Human lymphocytes [10]
  aberrant cells: 11%
CTLL-2 cells [6]; CTLL-2, in parallel to metaphase analysis
  concentration from which apoptosis increased: 37.5 nM
CTLL-2 cells [6]; CTLL-2, in parallel to metaphase analysis, 150 nM dexamethasone
  apoptosis: 30%
CTLL-2 cells [6]; CTLL-2, in parallel to metaphase analysis, from 37.5 nM of dexamethasone, control approximately 7%
  apoptosis: 18%
CTLL-2 cells [6]; CTLL-2, Annexin-V-FITC and YOPRO-1, maximum from 50 nM of dexamethasone, negative control 6%
  percentage of apoptotic cells: 30.5%
Human lymphocytes [11]
  concentration from which apoptosis increased: 250 µM
Human lymphocytes [11]; from 250 μM of dexamethasone, control approximately 16%
  apoptosis: 40%
CTLL-2 cells [12]; 50 nM
  micronucleated cells: 60 ‰

## CN1C(=O)CN=C(c2ccccc2)c2cc(Cl)ccc21 [diazepam]
CTLL-2-bcl2 cells [5]
  induction of apoptosis (result in words): without inducing apoptosis
CTLL-2 cells [6]
  induction of apoptosis (result in words): without inducing apoptosis
CTLL-2 cells [7]; CTLL-2 cells
  formation of micronuclei / micronucleated cell frequency (result in words): positive response
CTLL-2-bcl2 cells [8]
  formation of micronuclei / micronucleated cell frequency (result in words): positive response

## CCOS(C)(=O)=O [ethyl methanesulfonate]
CTLL-2-bcl2 cells [5]
  induction of apoptosis (result in words): without inducing apoptosis
CTLL-2 cells [6]; [14]
  induction of apoptosis (result in words): without inducing apoptosis

## O=c1c(-c2ccc(O)cc2)coc2cc(O)cc(O)c12 [genistein]
CTLL-2 cells [6]; [14]
  induction of apoptosis (result in words): induce apoptosis

## CN1C(=O)[C@]23CC4=CC=C[C@H](O)[C@H]4N2C(=O)[C@@]1(CO)SS3 [gliotoxin]
CTLL-2 cells [9]; from 50 μM of gliotoxin, control 1%
  aberrant cells: 10%
CTLL-2 cells [9]; CTLL-2 cells
  chromosomal aberrations (result in words): positive response
  lowest concentration with aberrations / positive response in terms of clastogenesis: 50 µM
CTLL-2-bcl2 cells [5]
  induction of apoptosis (result in words): apoptosis was maintained at a lower rate
CTLL-2 cells [6]
  level of apoptosis: 45%
CTLL-2 cells [6]; CTLL-2, in parallel to metaphase analysis, […], controls 5%
  apoptosis: 17%
CTLL-2 cells [6]; CTLL-2 cells
  lowest concentration with apoptosis different from control (p=0.01): 100 nM
CTLL-2 cells [7]; CTLL-2 cells
  lowest concentration with increase in micronuclei versus control: 100 nM
CTLL-2 cells [7]; nontransfected CTLL-2, gliotoxin at the highest dose (200 nM), increased from 5‰
  number of aberrant (micronucleated) cells: 20 ‰
CTLL-2-bcl2 cells [8]
  formation of micronuclei / micronucleated cell frequency (result in words): as was the number of micronucleated cells

## CSCCC=O [methional]
CTLL-2 cells [9]; CTLL-2 cells
  chromosomal aberrations (result in words): structural aberrations, such as breaks or gaps
  lowest concentration with aberrations / positive response in terms of clastogenesis: 18.75 µM
CTLL-2 cells [9]; nontransfected CTLL-2, methional 18.75 μM, control 3%
  cells bearing chromosomal aberrations: 13%
CTLL-2-bcl2 cells [5]
  induction of apoptosis (result in words): neither apoptosis nor micronuclei appeared
CTLL-2 cells [6]; CTLL-2, methional at the highest dose (150 μM), control 6.5%
  level of apoptotic cells: 24%
CTLL-2 cells [6]; CTLL-2 cells, first dose
  lowest concentration with statistically significant (p=0.01) induction of apoptosis: 60.8 µM
CTLL-2 cells [12]
  lowest concentration with statistically significant (p=0.01) micronucleated cells: 60.8 µM
CTLL-2 cells [12]; 150 μM
  number of micronucleated cells: 98 ‰

## CCN(CC)CCCC(C)Nc1c2ccc(Cl)cc2nc2ccc(OC)cc12 (stereo not drawn) [quinacrin]
CTLL-2 cells [6]; [14]
  induction of apoptosis (result in words): induce apoptosis

## CN[C@@H]1C[C@H]2O[C@@](C)([C@@H]1OC)n1c3ccccc3c3c4c(c5c6ccccc6n2c5c31)C(=O)NC4 [staurosporine]
CTLL-2-bcl2 cells [5]
  induction of apoptosis (result in words): neither apoptosis nor genotoxicity is observed
CTLL-2 cells [6]; [14]
  induction of apoptosis (result in words): induction of apoptosis
CTLL-2 cells [7]; CTLL-2 cells
  formation of micronuclei / micronucleated cell frequency (result in words): positive response in terms of clastogenesis
CTLL-2-bcl2 cells [8]
  formation of micronuclei / micronucleated cell frequency (result in words): neither apoptosis nor genotoxicity is observed

## CC(=O)O[C@H]1C(=O)[C@@]2(C)[C@H]([C@H](OC(=O)c3ccccc3)[C@]3(O)C[C@H](OC(=O)[C@H](O)[C@@H](NC(=O)c4ccccc4)c4ccccc4)C(C)=C1C3(C)C)[C@]1(OC(C)=O)CO[C@@H]1C[C@@H]2O [taxol]
CTLL-2-bcl2 cells [5]; taxol 50 nM
  apoptosis at the dose that increases micronuclei: do not cause apoptosis
CTLL-2-bcl2 cells [13]
  concentration at which the difference in number of micronuclei between CTLL-2 and CTLL-2-bcl2 lines appears: 25 nM
  lowest concentration with increase in number of micronuclei: 50 nM
CTLL-2 cells [6]; [14]
  induction of apoptosis (result in words): induce apoptosis
CTLL-2 cells [6]; CTLL-2 cells, taxol 25 nM
  apoptosis at the dose that increases micronuclei: do not cause apoptosis
CTLL-2 cells [12]
  lowest concentration with increase in micronuclei versus control: 25 nM

## mitomycin C
CTLL-2 cells [7]; CTLL-2 cells
  formation of micronuclei / micronucleated cell frequency (result in words): micronucleated cell frequencies increase significantly with the dose
CTLL-2-bcl2 cells [8]
  formation of micronuclei / micronucleated cell frequency (result in words): micronucleated cell frequencies increase significantly with the dose

## thapsigargine
CTLL-2 cells [6]; [14]
  induction of apoptosis (result in words): induce apoptosis
